From patent publication US8541395B2 (priority 2009, dated 2013)

Columns and labels:
[1] = test system: male Swiss mice; test: Formalin assay (intraplantar 4% formalin, phases 1 and 2) in mice; details: for effect of naloxone on the analgesic action, phase 1 / effect of naloxone on the analgesic action, phase 2: naloxone 5 mg/kg i.p., morphine 10 mg/kg, telocinobufagin 5 mg/kg oral
[2] = test system: rats with sciatic nerve ligature; test: Chronic constrictive injury (CCI) model, allodynia (von Frey); details: for antinociceptive effect on allodynia: p<0.05; for effect of naloxone on the analgesic action, allodynia: naloxone 5 mg/kg i.p., morphine 10 mg/kg, telocinobufagin 5 mg/kg i.p.
[3] = test system: male Swiss mice; test: Tail flick assay; details: for effect of naloxone on the analgesic action: naloxone 5 mg/kg i.p., morphine 10 mg/kg, telocinobufagin 5 mg/kg oral
[4] = test system: right atrium of rats; test: Chronotropism of isolated rat atrium (frequency of spontaneous contractions)
Excerpt: The right rat atrium was used to assess the chronotropic activity. The values of the spontaneous mechanical activity of the right atrium were expressed in contractions frequency or beats per minute (bpm). The heart rate was 298±50 contractions per minute in the rat right atrium.

[5] = test system: rats with sciatic nerve ligature; test: Chronic constrictive injury (CCI) model, hyperalgesia (Randall & Selitto paw pressure); details: for effect of naloxone on the analgesic action, hyperalgesia: naloxone 5 mg/kg i.p., morphine 10 mg/kg, telocinobufagin 5 mg/kg i.p.
[6] = test system: male Swiss mice; test: Contortion assay (0.6% acetic acid, abdominal contortions) in mice; details: for effect of naloxone on the analgesic action: naloxone 5 mg/kg i.p., morphine 10 mg/kg i.p., telocinobufagin 10 mg/kg oral
[7] = test system: male Swiss mice; test: Hot plate assay; details: for effect of naloxone on the analgesic action: naloxone 5 mg/kg i.p., morphine dose printed as 'mg/kg', telocinobufagin 5 mg/kg oral
[8] = test system: left atrium of rats; test: Inotropism of isolated rat atrium (cardiac contraction force)
Excerpt: The left atrium of rats was used to assess the inotropic activity. The data were expressed as contraction force (g of tension), and were compared to the results obtained with bupivacaine.
The application of square pulses (5 V, 5 ms, 2 Hz) in the left atrium with frequency of 120 bpm was sufficient to produce a cardiac contraction force of 0.63±0.09 g of tension.

[9] = Solubility
[10] = target: T1, Kv4.3 (Homo sapiens, UniProt Q9UK17); test: Patch clamp assay, ion channel inhibition; details: read-out: Mean % inhibition (positive control)
T1 sequence (Q9UK17 1-655): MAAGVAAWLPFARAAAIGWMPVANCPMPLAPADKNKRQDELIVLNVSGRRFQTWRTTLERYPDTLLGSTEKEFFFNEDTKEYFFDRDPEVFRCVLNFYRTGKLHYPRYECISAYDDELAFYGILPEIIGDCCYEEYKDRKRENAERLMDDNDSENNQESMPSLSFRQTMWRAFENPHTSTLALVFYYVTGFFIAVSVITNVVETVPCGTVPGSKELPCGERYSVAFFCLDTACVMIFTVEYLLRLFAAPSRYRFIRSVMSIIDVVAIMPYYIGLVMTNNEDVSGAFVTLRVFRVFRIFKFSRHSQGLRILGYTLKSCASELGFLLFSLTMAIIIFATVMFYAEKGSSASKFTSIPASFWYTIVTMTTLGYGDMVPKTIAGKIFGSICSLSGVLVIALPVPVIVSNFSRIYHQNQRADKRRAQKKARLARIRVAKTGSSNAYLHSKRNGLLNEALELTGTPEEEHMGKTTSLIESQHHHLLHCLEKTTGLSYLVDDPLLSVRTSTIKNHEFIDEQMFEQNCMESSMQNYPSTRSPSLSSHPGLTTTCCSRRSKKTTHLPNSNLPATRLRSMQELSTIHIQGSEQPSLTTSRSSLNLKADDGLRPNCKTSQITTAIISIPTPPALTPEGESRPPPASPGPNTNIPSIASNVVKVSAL
Description: (§1) The studies were conducted according to the conventional procedures.
(§2) The exposure duration of each channel was 5 minutes. […] Any left current after exposure to this dose was digitally subtracted to eliminate the contribution of any endogenous current.

[11] = target: T2, KvLQT/minK (Homo sapiens, UniProt P51787); test: Patch clamp assay, ion channel inhibition; type: cell-based; details: 30 μM; n=2
T2 construct: expressed in transfected cells
Description: as §1, §2

[12] = target: Kir6.2/SUR2A (Homo sapiens, UniProt O60706+Q14654); test: Patch clamp assay, ion channel inhibition; type: cell-based; details: n=2, read-out: Mean % inhibition (positive control)
Description: as §1, §2

[13] = target: T3, Kir3.1/3.4 (Homo sapiens, UniProt P48544+P48549); test: Patch clamp assay, ion channel inhibition; type: cell-based; details: 300 μM; n=2
T3 sequence (P48549 1-501): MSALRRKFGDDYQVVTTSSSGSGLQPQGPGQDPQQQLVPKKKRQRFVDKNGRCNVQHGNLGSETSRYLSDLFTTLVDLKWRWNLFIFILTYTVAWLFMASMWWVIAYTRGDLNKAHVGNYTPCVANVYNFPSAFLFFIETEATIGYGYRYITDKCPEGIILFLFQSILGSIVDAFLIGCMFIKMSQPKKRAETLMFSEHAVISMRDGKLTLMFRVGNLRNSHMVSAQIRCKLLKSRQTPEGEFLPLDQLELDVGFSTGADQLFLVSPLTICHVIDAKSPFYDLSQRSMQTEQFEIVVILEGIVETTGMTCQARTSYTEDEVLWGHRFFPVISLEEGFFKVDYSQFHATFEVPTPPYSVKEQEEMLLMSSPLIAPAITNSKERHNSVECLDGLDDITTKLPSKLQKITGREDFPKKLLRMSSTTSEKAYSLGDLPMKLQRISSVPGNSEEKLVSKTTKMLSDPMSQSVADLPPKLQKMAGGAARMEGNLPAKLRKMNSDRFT
T3 sequence (P48544 1-419): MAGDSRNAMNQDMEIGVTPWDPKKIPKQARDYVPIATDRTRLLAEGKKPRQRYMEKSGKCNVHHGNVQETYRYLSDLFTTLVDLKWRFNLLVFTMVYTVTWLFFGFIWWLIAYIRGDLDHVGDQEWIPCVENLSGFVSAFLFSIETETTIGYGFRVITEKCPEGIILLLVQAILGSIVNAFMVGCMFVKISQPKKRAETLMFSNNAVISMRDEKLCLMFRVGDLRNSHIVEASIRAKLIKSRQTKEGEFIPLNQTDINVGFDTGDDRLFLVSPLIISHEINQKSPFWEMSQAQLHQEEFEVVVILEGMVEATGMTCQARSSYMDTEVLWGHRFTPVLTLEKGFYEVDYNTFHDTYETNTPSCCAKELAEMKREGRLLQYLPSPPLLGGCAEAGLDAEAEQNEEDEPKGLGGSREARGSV
Description: as §1, §2

[14] = target: T4, Kir2.1 (Homo sapiens, UniProt P63252); test: Patch clamp assay, ion channel inhibition; type: cell-based; details: 100 μM; n=2
T4 sequence (P63252 1-427): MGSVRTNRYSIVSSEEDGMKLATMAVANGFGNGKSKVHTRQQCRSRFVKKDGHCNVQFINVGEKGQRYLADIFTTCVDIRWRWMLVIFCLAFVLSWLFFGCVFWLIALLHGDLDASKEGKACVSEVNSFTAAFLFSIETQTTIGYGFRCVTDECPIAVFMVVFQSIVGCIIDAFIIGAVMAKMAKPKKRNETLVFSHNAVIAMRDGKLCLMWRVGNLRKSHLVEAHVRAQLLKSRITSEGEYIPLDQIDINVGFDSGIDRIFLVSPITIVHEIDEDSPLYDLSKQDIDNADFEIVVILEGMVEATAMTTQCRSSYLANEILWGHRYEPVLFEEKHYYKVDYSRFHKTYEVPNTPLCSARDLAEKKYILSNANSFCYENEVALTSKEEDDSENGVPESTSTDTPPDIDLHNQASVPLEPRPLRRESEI

[15] = target: Kv1.5 (Homo sapiens, UniProt P22460); test: Patch clamp assay, ion channel inhibition; type: cell-based; details: 2000 μM; n=2
Sequence of Kv1.5 (P22460 whole entry): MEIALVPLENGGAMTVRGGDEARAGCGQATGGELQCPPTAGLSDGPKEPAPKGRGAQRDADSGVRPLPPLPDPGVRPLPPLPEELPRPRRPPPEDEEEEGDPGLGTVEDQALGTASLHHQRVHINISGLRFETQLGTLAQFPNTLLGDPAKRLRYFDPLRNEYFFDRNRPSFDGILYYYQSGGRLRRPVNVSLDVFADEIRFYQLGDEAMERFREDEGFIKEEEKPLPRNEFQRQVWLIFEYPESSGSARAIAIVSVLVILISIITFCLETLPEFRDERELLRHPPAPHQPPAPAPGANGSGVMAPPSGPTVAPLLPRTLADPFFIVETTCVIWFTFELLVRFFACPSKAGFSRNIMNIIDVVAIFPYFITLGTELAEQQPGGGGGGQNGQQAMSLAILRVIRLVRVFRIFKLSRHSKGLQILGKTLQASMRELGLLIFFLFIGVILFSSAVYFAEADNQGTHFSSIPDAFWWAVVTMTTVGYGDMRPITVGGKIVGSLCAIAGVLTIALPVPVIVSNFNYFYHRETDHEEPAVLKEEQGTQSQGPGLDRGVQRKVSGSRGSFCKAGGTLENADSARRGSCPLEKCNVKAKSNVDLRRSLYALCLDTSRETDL
Description: as §1, §2

T2 sequence (P51787 whole entry): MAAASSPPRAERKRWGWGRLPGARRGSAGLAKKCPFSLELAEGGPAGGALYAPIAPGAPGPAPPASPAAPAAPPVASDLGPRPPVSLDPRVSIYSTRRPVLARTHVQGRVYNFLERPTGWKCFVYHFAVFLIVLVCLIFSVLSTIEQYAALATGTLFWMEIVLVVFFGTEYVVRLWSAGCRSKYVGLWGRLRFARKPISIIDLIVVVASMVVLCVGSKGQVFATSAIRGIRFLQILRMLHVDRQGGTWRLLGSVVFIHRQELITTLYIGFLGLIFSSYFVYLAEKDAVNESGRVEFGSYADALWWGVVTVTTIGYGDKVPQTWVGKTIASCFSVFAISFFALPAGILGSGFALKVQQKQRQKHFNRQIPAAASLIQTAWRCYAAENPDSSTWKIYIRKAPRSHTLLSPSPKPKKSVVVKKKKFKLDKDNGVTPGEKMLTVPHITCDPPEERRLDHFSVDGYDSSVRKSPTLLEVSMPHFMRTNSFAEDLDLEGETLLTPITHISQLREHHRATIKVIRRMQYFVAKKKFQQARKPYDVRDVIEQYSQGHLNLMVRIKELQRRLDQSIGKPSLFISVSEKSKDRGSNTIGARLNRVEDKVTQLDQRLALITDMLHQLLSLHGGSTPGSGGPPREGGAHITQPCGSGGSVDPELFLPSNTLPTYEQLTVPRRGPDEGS
Sequence of Kir6.2/SUR2A (Q14654 whole entry): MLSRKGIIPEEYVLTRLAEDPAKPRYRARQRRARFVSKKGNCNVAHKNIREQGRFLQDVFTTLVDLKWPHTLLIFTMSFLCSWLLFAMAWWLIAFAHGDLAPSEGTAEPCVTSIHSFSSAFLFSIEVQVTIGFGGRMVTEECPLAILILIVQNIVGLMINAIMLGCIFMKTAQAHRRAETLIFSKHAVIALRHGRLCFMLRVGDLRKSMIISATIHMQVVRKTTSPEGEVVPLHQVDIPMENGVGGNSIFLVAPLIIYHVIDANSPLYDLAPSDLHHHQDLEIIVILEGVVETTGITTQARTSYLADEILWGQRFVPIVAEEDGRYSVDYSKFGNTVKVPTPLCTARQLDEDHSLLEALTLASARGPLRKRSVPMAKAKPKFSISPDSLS
Sequence of Kir6.2/SUR2A (O60706 whole entry): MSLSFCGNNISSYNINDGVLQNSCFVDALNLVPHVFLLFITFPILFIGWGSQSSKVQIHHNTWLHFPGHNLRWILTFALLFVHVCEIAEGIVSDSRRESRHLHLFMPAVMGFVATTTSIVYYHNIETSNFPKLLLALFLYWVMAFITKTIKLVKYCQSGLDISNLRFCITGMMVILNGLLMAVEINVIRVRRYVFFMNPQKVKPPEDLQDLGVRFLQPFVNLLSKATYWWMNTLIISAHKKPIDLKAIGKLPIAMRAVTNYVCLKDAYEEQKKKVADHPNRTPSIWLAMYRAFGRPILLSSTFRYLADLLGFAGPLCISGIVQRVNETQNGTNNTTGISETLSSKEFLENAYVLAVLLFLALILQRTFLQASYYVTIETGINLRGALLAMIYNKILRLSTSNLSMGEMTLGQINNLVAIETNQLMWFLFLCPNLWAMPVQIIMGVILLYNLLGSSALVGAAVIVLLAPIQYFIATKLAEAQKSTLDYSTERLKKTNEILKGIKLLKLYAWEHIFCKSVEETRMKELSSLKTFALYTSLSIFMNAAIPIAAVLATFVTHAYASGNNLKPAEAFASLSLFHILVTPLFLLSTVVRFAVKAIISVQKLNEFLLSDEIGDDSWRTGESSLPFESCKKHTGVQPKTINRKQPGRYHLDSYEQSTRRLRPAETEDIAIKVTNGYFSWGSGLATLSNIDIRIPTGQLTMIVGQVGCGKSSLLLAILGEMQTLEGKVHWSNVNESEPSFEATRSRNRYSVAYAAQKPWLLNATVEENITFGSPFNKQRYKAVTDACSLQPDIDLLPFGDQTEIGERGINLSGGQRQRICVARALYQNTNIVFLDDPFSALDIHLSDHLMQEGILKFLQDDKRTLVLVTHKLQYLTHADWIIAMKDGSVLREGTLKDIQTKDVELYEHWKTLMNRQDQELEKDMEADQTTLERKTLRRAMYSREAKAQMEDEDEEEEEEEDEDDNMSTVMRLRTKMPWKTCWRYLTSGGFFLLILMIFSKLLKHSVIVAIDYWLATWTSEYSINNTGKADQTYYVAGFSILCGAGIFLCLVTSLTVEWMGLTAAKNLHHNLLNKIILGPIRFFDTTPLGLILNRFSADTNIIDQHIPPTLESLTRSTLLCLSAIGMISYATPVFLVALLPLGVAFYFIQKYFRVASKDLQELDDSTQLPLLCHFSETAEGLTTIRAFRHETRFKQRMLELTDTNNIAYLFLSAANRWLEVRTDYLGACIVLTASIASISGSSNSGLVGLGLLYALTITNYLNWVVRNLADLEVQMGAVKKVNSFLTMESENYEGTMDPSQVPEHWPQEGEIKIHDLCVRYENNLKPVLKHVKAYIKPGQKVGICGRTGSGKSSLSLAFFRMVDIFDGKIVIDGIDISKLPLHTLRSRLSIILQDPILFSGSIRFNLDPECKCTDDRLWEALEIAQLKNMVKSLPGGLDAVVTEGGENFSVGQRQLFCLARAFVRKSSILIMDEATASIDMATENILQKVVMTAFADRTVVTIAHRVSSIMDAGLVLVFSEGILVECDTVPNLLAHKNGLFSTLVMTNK

C[C@]12CC[C@H](O)C[C@@]1(O)CC[C@@H]1[C@@H]2CC[C@]2(C)[C@@H](c3ccc(=O)oc3)CC[C@]12O [telocinobufagin, (3β,5β)-3,5,14-trihydroxy-bufa-20,22-dienolide]
antinociceptive effect compared to the other analgesics, phase 1 ([1]; phase 1, 10 mg/kg oral vs diclofenac 50, dipyrone 50, codeine 20 mg/kg i.p., p<0.05): pretty much superior to that of the other analgesics
licks blocked compared to the control group, phase 1 ([1]; phase 1, 10 mg/kg oral, p<0.005): ~80%
effect of naloxone on the analgesic action, phase 1 ([1]; phase 1): did not block
antinociceptive effect, mol to mol, greater than that of morphine, phase 1 ([1]; phase 1, telocinobufagin 10 mg/kg oral vs morphine sulfate 10 mg/kg i.p.): ~40%
antinociceptive effect compared to the other analgesics, phase 2 ([1]; phase 2, 5 mg/kg oral vs diclofenac 50, dipyrone 50, codeine 20 mg/kg i.p., p<0.05): pretty much superior to that of the other analgesics
licks blocked compared to the control group, phase 2 ([1]; phase 2, 10 mg/kg oral, p<0.0001): ~100%
effect of naloxone on the analgesic action, phase 2 ([1]; phase 2): did not block
antinociceptive effect, mol to mol, greater than that of morphine, phase 2 ([1]; phase 2, telocinobufagin 5 mg/kg oral vs morphine sulfate 10 mg/kg i.p.): ~58%
antinociceptive effect on allodynia ([2]; 5 mg/kg i.p.): blocking completely the allodynia
antinociceptive effect on allodynia ([2]; 20 mg/kg oral): blocking completely the allodynia
duration of the analgesic effects on allodynia ([2]; intraperitoneal 5 mg/kg): around 6 hours
reversion of the allodynia (compared to RP) ([2]; intraperitoneal TBC 5 mg/kg): reverted completely the allodynia
effect of naloxone on the analgesic action, allodynia [2]: did not block significantly
duration of the analgesic effects on allodynia ([2]; oral 20 mg/kg): around 6 hours
reversion of the allodynia (compared to RP) ([2]; oral TBC 20 mg/kg): reverted completely the allodynia
antinociceptive effect (tail flick latency) ([3]; doses of 2.5 and 5 mg/kg oral, p<0.05): significant antinociceptive effects
effect of naloxone on the analgesic action [3]: did not block
alteration of the spontaneous mechanical cardiac activity compared to the control ([4]; 10^−7 M to 10^−4 M, n=6, p>0.05): no significant alteration
duration of the analgesic effects on hyperalgesia ([5]; intraperitoneal 5 mg/kg): around 6 hours
increase of the response compared to the control group (RPtest), hyperalgesia ([5]; intraperitoneal 5 mg/kg, p<0.001): approximately 9 times
effect of naloxone on the analgesic action, hyperalgesia [5]: did not block significantly
duration of the analgesic effects on hyperalgesia ([5]; oral 20 mg/kg): around 6 hours
increase of the response compared to the control group (RPtest), hyperalgesia ([5]; oral 20 mg/kg, p<0.05): ~3.9 times
antinociceptive effect, mol to mol, greater than that of morphine, hyperalgesia ([5]; telocinobufagin 5 mg/kg i.p. (20 mg/kg oral) vs morphine sulfate 10 mg/kg i.p.): approximately 900%
antinociceptive effect compared to the other analgesics, hyperalgesia ([5]; vs diclofenac, codeine, dipyrone, amitriptyline, carbamazepine, prednisone, p<0.05): pretty much superior to that of the other analgesics
antinociceptive effect compared to the other analgesics ([6]; 10 mg/kg oral vs diclofenac 50, dipyrone 50, codeine 20 mg/kg i.p., p<0.05): pretty much superior to the effects of the other analgesics
contortions blocked compared to the control group ([6]; 10 mg/kg oral, mice, p<0.001): ~90%
effect of naloxone on the analgesic action [6]: did not block
antinociceptive effect, mol to mol, greater than that of morphine ([6]; telocinobufagin 10 mg/kg oral vs morphine sulfate 10 mg/kg i.p.): ~40%
effect of naloxone on the analgesic action [7]: did not block
increase of the response (latency) compared to control group ([7]; oral, dose printed as 'mg/kg' without figure, p<0.001): approximately 450%
alteration of the cardiac contraction force ([8]; 10^−3 M during 12 minutes, p>0.05): did not produce significant alteration
alteration of the cardiac contraction force compared to the control ([8]; 10^−7 to 10^−4 M): no significant alteration
solubility in 50% DMSO ([9]; 50% DMSO (v/v in water)): soluble
solubility in ethanol ([9]; ethanol (100%)): soluble
solubility in chloroform ([9]; pure chloroform): soluble
solubility in water ([9]; water): insoluble

O=C(NCC1CCCCN1)c1cc(OCC(F)(F)F)ccc1OCC(F)(F)F (stereo not shown) [Flecainide]
inhibition at 100 µM [10]: 96.1%

CCS(=O)(=O)N(C)[C@H]1c2cc(C#N)ccc2OC(C)(C)[C@@H]1O [Chromanol-293B]
Mean % inhibition (positive control) [11]: 87.8%

CN1CC[C@]23c4c5ccc(O)c4O[C@H]2[C@@H](O)C=C[C@H]3[C@H]1C5.O=S(=O)(O)O [morphine, morphine sulfate, reference compound]
effect of naloxone on the analgesic action, phase 1 ([1]; phase 1): blocked
effect of naloxone on the analgesic action, phase 2 ([1]; phase 2): blocked
reversion of the allodynia (compared to RP) ([2]; intraperitoneal morphine 10 mg/kg): ~50%
effect of naloxone on the analgesic action, allodynia [2]: blocked
effect of naloxone on the analgesic action [3]: blocked
effect of naloxone on the analgesic action, hyperalgesia [5]: blocked
effect of naloxone on the analgesic action [6]: blocked
effect of naloxone on the analgesic action [7]: blocked

CCCCN1CCCCC1C(=O)Nc1c(C)cccc1C (stereo not shown) [bupivacaine, reference compound]
frequency of spontaneous cardiac activity ([4]; 3×10^−5 M, basal 298±50, mean±standard error, n=6): 9.6±2.4 bpm
heart rate (frequency of spontaneous cardiac activity) ([4]; 10^−4 M, p<0.05): blocked completely the heart rate to zero
cardiac contraction force ([8]; 3×10^−5 M, basal 0.63±0.09, mean±SEM, n=6): 0.13±0.06 g of tension
cardiac contraction force ([8]; 10^−4 M, p<0.05): blocked completely the cardiac contraction force to zero

COc1ccc(Cl)cc1C(=O)NCCc1ccc(S(=O)(=O)NC(=O)NC2CCCCC2)cc1 [Glibenclamide]
inhibition at 1 µM [12]: 79.8%

[Ba] [Barium]
Mean % inhibition (positive control) [13]: 86.6%
Mean % inhibition (positive control) [14]: 85.4%

Nc1ccncc1 [4-AP]
Mean % inhibition (positive control) [15]: 85.1%
